Results from US7994326B2 (Northwestern University, priority 2003, dated 2011).
Like-named read-outs stand apart in the source and are kept apart here.

Key:
Assay type in all cases: biochemical
[1] = molecular target: T1, rat nNOS (Rattus norvegicus, UniProt P29476); test: NOS enzyme inhibitory assay (hemoglobin capture), nNOS; details: Table 1a; for Selectivity n/e: Ki(eNOS)/Ki(nNOS); for Selectivity n/i: Ki(iNOS)/Ki(nNOS); for Ki: apparent Ki calculated from IC50, Km […], read-out: calc. Ki nNOS; for IC50: rat nNOS, 10 μM L-arginine
T1 construct: made in house; host or cells: E. coli (plasmid pCWnNOS)
Procedure: (§1) All of the NOS isoforms used were recombinant enzymes overexpressed in E. coli from different sources. Nitric oxide formation from NOS was monitored by the hemoglobin capture assay as described in the literature.
After approximately 48 h of post-induction incubation in the dark at 25° C. the cells were pelleted at 5300×g, transferred to 50 mL conical tubes, and stored at −80° C.
nNOS purification: Cell pellets from 2.0 L of culture were resuspended in sonication Buffer A (50 mM Tris Base Buffer, pH 8.0, 10% glycerol), 2 mg/ml lysozyme. 0.5 mM L-arginine. 1 mM EDTA, 0.1 mM PMSF, 1 µg/ml antipain, and 1 μM each of leupeptin, […], and […]) and lysed by sonication. Centrifugation for 1 h at 100000×g yielded supernatant which contained nNOS active enzyme. The supernatant was brought to 2 mM CaCl2 and the protein was loaded onto a 15 ml calmodulin-Sepharose column equilibrated with Buffer A containing 2 mM CaCl2. The column was washed with 100 ml Buffer B (50 mM Hepes, 5 mM DTT, and […]) containing 2 mM CaCl2, 0.5 mM L-arginine, and 10 μM BH4, and eluted with 30 ml Buffer B supplemented with 0.3 M NaCl, 5 mM EGTA, 0.5 mM L-arginine, and 10 μM BH4. The protein was then loaded onto a 5 ml 2′,5′-ADP-Sepharose column equilibrated with Buffer B supplemented with 0.3 M NaCl, 0.5 mM L-arginine, and 10 μM BH4. The column was washed with 25 ml Buffer B containing 0.5 mM L-arginine and 10 μM BH4, and then 25 ml of Buffer B only supplemented with 10 μM BH4 (without L-arginine). Neuronal NOS was eluted with 20 ml Buffer B supplemented with 10 mM 2′(3′)-AMP, 10 μM BH4 and 0.3 M NaCl. The 20 ml eluent was then concentrated to 5 ml by ultrafiltration. The above concentration operation was repeated twice more with 10 ml Buffer B supplemented with 10 µM BH4 to give the purified neuronal NOS.
Nitric oxide formation from NOS was monitored by the hemoglobin capture assay as described previously.
(§2) The selectivity of an inhibitor is defined as the ratio of the respective Ki values.

[2] = molecular target: T2, murine iNOS (Mus musculus, UniProt P29477); test: NOS enzyme inhibitory assay (hemoglobin capture), iNOS; details: for IC50: murine iNOS, 10 μM L-arginine
T2 construct: made in house; host or cells: E. coli (plasmid pCWiNOS)
Excerpt: as §1
Enzyme inhibitory assay. All of the NOS isoforms used are recombinant enzymes overexpressed in E. coli from different sources.
iNOS expression: An overnight culture of pCWiNOS was used to inoculate (1:100) larger cultures of Terrific Broth media (12 g/L tryptone, 24 g/L yeast extract, 4 mL/L glycerol, 17 mM KH2PO4, and 72 mM K2HPO4) containing 50 μg/mL ampicillin and 34 μg/mL chloramphenicol at 37° C. At an OD600 of ˜0.5, the culture was cooled to 25° C. and induced by the addition of 1 mM IPTG (final concentration). After approximately 24 h of growth at 25° C., the cells were pelleted at 5300×g, transferred to 50 mL conical tubes, and stored at −80° C.
iNOS purification: Cell pellets from 1.0 L of culture were resuspended in sonication buffer (50 mM Hepes, pH 7.4, 10% glycerol, 10 μg/mL benzamidine, 5 μg/mL leupeptin, 0.2 mM of PMSF, and 1 μg/mL each of pepstatin, chymostatin, and antipain) and lysed by sonication. Centrifugation for 20 min at 13000×g yielded supernatant which contained iNOS active enzyme. iNOS supernatant was loaded onto 1 g of a 2′,5′-ADP-Sepharose 4B resin column. The column was then washed with 20 ml iNOS purification buffer (10 mM K2HPO4, 10% glycerol, 0.5 mM L-arginine, pH 7.4) and 10 μM BH4. Inducible NOS was eluted with 30 ml iNOS purification buffer supplemented with 10 mM 2′(3′)-AMP, 10 μM BH4, and 0.3 M NaCl. The eluent was concentrated to 5 ml by ultrafiltration. The above concentration operation was repeated three times more with 10 ml Hepes buffer supplemented with 10 μM BH4, to give purified inducible NOS.
(§3) Nitric oxide formation from NOS was monitored by the hemoglobin capture assay as described previously. (Hevel, J. M.; Marletta, M. A. Nitric Oxide Synthase Assays. Methods Enzymol. 1994, […], 250-258).
as §2

[3] = molecular target: T3, bovine eNOS (Bos taurus, UniProt P29473); test: NOS enzyme inhibitory assay (hemoglobin capture), eNOS; details: for IC50: bovine eNOS, 10 μM L-arginine, * = no inhibition observed up to the concentration listed
T3 construct: made in house; host or cells: E. coli (plasmid Bov-eNOSpCW)
Procedure: as §1
Expression of bovine eNOS: An overnight culture of Bov-eNOSpCW was used to inoculate 0.5 liter (in a 2.8-liter Fernbach flask) of modified TB (20 g of yeast extract, 10 g of bacto-tryptone, 2.65 g of KH2PO4, 4.33 g of Na2HPO4 and 4 ml of glycerol per liter) containing ampicillin ([…]) and chloramphenicol ([…]). The cultures were grown to an OD600 of z0.8 at 22° C. (200 rpm) and induced with 0.5 mM IPTG. One hour before IPTG induction, d-aminolevulinic acid (0.5 mM final) was added and, at the time of IPTG induction, riboflavin ([…]) and ATP (1 mM final) were also added. After induction, the flasks were kept in the dark at 22° C. (200 rpm). The cells were harvested 48 h after induction, and the cell pellet was frozen at −80° C. until purification was carried out.
Purification of bovine eNOS. The purification was typically carried out with eNOS from 2 liters of E. coli culture. The eNOS protein was purified using a modification of the published protocol for nNOS (14). The cells were resuspended in buffer C [50 mM Tris-Cl, pH 7.8, 1 mM EDTA, 1 mM DTT, 10% glycerol (v/v), 150 mM NaCl, 0.1 mM phenylmethylsulfonyl fluoride, […]], lysed by pulsed sonication and then centrifuged to sediment the cell debris. The supernatant was applied to a 2′,5′-ADP Sepharose 4B column equilibrated in buffer D [50 mM Tris-Cl, pH 7.8, 0.1 mM EDTA, 0.1 mM dithiothreitol, 150 mM NaCl, 10% glycerol (v/v)]. The column was washed with 20 column volumes of buffer B and again with 20 column volumes of buffer B containing 600 mM NaCl. Finally, protein was eluted with buffer B containing 600 mM NaCl and 5 mM 2′-AMP. The fractions were screened for absorption in the Soret region (A400) and hemoprotein-containing fractions were pooled and concentrated (Centriprep 50, Amicon). Repeated dilution/concentration [50 mM Tris-Cl, pH 7.8, 0.1 mM EDTA, 0.1 mM dithiothreitol, 10% glycerol (vol/vol)] was used to reach a final concentration of 150 mM NaCl and commensurately reduce the 2′-AMP content. […] The purified eNOS is stored in the presence of 1 mM L-arginine.
eNOS washing: eNOS contains a significant amount of L-arginine, which will interfere with the enzyme assay. The L-arginine can be removed by several dilution and concentration steps using an Amico concentrator. The dilution buffer is 10 ml Tris-HCl 50 mM containing 0.1 mM EDTA, 400 mM NaCl, 10% glycerol and 1 mM beta-mercaptoethanol. The above dilution and concentration operation was repeated three times to give purified eNOS.
as §3, §2

[4] = Table 1a, apparent Ki calculated from IC50, Km […], read-out: calc. Ki iNOS
[5] = Table 1a, apparent Ki calculated from IC50, Km 1.7 μM, read-out: calc. Ki eNOS

Row | SMILES | Selectivity n/e [1] | Selectivity n/i [1] | Ki [1] [µM] | IC50 [1] [µM] | Ki [2, 4] [µM] | IC50 ([2]; Table 1a) [µM] | Ki [3, 5] [µM] | IC50 ([3]; Table 1a) [µM] | Ki ([3]; Table 1b, read-out: Ki eNOS) [µM] | Ki ([2]; Table 1b, read-out: Ki iNOS) [µM]
1 | Cl.Cl.Nc1cccc(CC2CNCC2O)n1 (racemic) [Compound P-11] | 49.11 | 3.64 | 6.94 | 60.3 | 25.2 | 56 | 341 | 2350 | – | –
2 | Cl.Cl.Cl.Nc1cccc(CC2CNCC2NCCCc2ccccc2)n1 (racemic) [Compound P-12] | 6.42 | 10.83 | 13.3 | 115 | 144 | 317 | 85.2 | 586 | – | –
3 | CN(C)CCNC1CNCC1Cc1cccc(N)n1 (racemic) [Compound P-15] | 15.41 | 19.65 | 15.7 | 136 | 308 | 679 | 242 | 1660 | – | –
4 | Nc1cccc(CC2CNCC2NCC(N)Cc2ccccc2)n1 (racemic) [Compound P-16] | >104.83 | 21.54 | 13.9 | 120 | 299 | 658 | > 1450 | > 10000 | – | –
5 | Nc1cccc(CC2CNCC2NCC(N)Cc2ccccc2)n1 (racemic) [Compound P-17] | >70.64 | 20.25 | 20.6 | 179 | 417 | 919 | > 1450 | > 10000 | – | –
6 | Nc1cccc(C[C@H]2CNC[C@@H]2NCCNCc2ccccc2)n1 (racemic) [Compound P-18] | >703.88 | 11.49 | 14.5 | 126 | 166 | 366 | – | > 70000 | – | –
7 | Nc1cccc(CC2CNCC2NC2CCNC2)n1 (racemic) [Compound P-19] | 22.00 | 12.11 | 20.9 | 182 | 253 | 559 | 460 | 3170 | – | –
8 | Nc1cccc(CC2CNCC2NC2CCNC2)n1 (racemic) [Compound P-20] | 48.67 | 18.21 | 12.8 | 112 | 234 | 516 | 625 | 4300 | – | –
9 | Nc1cccc(CC2CNCC2NC2CCN(Cc3ccccc3)C2)n1 (racemic) [Compound P-21] | 6.99 | 11.70 | 24.4 | 212 | 286 | 630 | 171 | 1170 | – | –
10 | Nc1cccc(CC2CNCC2NC2CCN(Cc3ccccc3)C2)n1 (racemic) [Compound P-22] | 6.07 | 11.66 | 17.9 | 156 | 209 | 461 | 109 | 748 | – | –
11 | Cl.Cl.Cl.Nc1cccc(C[C@H]2CNC[C@H]2NCCCc2ccccc2)n1 (racemic) [Compound P-27] | 27.9 | 52.43 | 3.17 | 27.5 | 166 | 366 | 88.5 | 609 | – | –
12 | Cc1cc(N)nc(CC2CNCC2NCCNCc2ccc(C(F)(F)F)cc2)c1.Cl.Cl.Cl.Cl (racemic) [Compound P-56] | – | – | – | – | – | – | – | – | 61.2 | –
13 | Cc1cc(N)nc(CC2CNCC2N(C)CCNCc2ccc(Cl)cc2)c1 (racemic) [Compound P-64] | – | – | – | – | – | – | – | – | 125 | –
14 | Cc1cc(N)nc(C[C@H]2CNC[C@@H]2N(C)CCNCc2ccc(Cl)cc2)c1 (racemic) [Compound P-69] | – | – | – | – | – | – | – | – | 58.1 | –
15 | Cc1cc(N)nc(C[C@H]2CNC[C@H]2OCC(=O)NCCc2cccc(F)c2)c1 (racemic) [Compound P-79, (±)-2-{cis-4-[(6-amino-4-methylpyridin-2-yl)methyl]pyrrolidin-3-yloxy}-N-(3-fluorophenethyl)acetamide] | – | – | – | – | – | – | – | – | 125 | 13
16 | Cl.Cl.Cl.Cl.Nc1cccc(C[C@@H]2CNC[C@@H]2NC[C@@H]2CCCN2)n1 [Compound P-41] | – | 4.67 | 5.66 | 49.2 | 26.4 | 58.3 | – | – | – | –
17 | Cl.Cl.Cl.Cl.Nc1cccc(C[C@H]2CNC[C@H]2NC[C@H]2CCCN2)n1 [Compound P-42] | – | 31.97 | 2.19 | 19 | 70 | 154 | – | – | – | –
18 | Cl.Cl.Cl.Cl.Nc1cccc(C[C@@H]2CNC[C@@H]2NC[C@H]2CCCN2)n1 [Compound P-43] | – | 9.22 | 4.55 | 39.5 | 42 | 92.5 | – | – | – | –
